# In patent US10004716B2, “Therapeutic/ preventive agent containing coumarin derivative as active ingredient” (NIPPON ZOKI PHARMACEUTICAL CO., LTD., priority 2014, dated 2018):
# Columns and labels:
# [1] = tested on: type I collagen (Col 1) gene expression; assay: Evaluation I: TGF-β-induced gene expression of fibrosis-related factors in NHLF cells: Col 1; assay type: cell-based, human; details: 25 μmol/L test substance 2 hours, then TGF-β 5 ng/mL 24 hours, n = 3
# Protocol: (§1) NHLF cells were sown so as to make their amount 4×10^4 cells/well to each well of a 12-well plate and incubated to an extent of 80% confluent in a medium where fibroblast growth medium 2 supplement mix (FGM-2 SingleQuots, Lonza) was added to a fibroblast basal medium (FBM, Lonza). After that, incubation was conducted for 2 hours in a Dulbecco modified Eagle medium (DMEM) containing 25 μmol/L of a test substance and, after addition of […] growth factor (TGF)-β thereto so as to make its final concentration 5 ng/mL, incubation was carried out for 24 hours more.
# (§2) QIAzol Lysis Reagent (QIAGEN) (1 mL) was added to the above to suspend, 200 μL of chloroform was added thereto followed by mixing and centrifugation (at 4° C. and 1500 rpm) was then conducted whereby the supernatant liquid was recovered. Total RNA was extracted and purified by treating the supernatant liquid with QIACube (QIAGEN) and RNeasy Micro Kit (QIAGEN). cDNA was prepared from the total RNA using Omniscript RT kit (QIAGEN) and Oligo(dT)12-18 Primer (Invitrogen).
# (§3) Gene expression level of the fibrosis-related factors [connective tissue growth factor (CTGF), α-smooth muscle actin (SMA), fibronectin, endothelin and type I collagen (Col 1)] was measured by a conventional real time PCR method using a fluorescent dye SYBR GREEN I (Roche Diagnostics) by Light Cycler LC 480 (the same) using cDNA synthesized from the total RNA extracted in the above (2). A calibration curve was prepared by diluting the PCR product quantified by PicoGreen dsDNA Quantitation kit (Molecular probes) (a DNA quantitation kit) to an extent of 10^2˜10^7 copies/μL. From each of the resulting quantified values, copy numbers per 10000 copies of GAPDH gene being an internal standard were calculated.
# COX-2 gene expression = assay: Suppression of IL-1α-induced gene expression of inflammation-related factors in bovine cartilage pieces (real time PCR): COX-2; assay type: cell-based; details: 20 μmol/L test substance 2 hours, then IL-1α 3 ng/mL 8 hours, n = 3
# Protocol: (§4) Each 6 to 8 cartilage pieces (diameter: 4 mm) of bovine metacarpophalangeal joint were placed into each well of a 24-well plate and incubated for one night in 1 mL of a basal medium in a CO2 incubator which was set at 37° C. and 5% by volume of CO2. After that, they were incubated for 2 hours in a basal medium containing 20 μmol/L of a test substance and, after addition of human recombinant IL-1α (3 ng/mL) thereto, they were incubated for 8 hours more. After completion of the incubation, the culture medium was discarded, an RNA stabilizer was added to the cartilage pieces, the mixture was incubated at 4° C. for one night and the cartilage pieces were finely cut using scissors, placed into micro-tubes and stored with freezing until the extraction of RNA therefrom.
# (§5) The cartilage pieces placed in the micro-tubes were pulverized using Tissue Lyser (QIAGEN) (at 25 Hz for 5 minutes; for two times), 1 mL of QIAzol Lysis Reagent (QIAGEN) was added thereto to suspend, 200 μL of chloroform was added thereto followed by mixing and the mixture was centrifuged (1500 rpm at 4° C.) to recover the supernatant liquid. Total RNA was extracted and purified using QIACube (QIAGEN) and RNeasy Micro Kit (QIAGEN). cDNA was prepared from the total RNA using Omniscript RT Kit (QIAGEN) and Oligo(dT)12-18 Primer (Invitrogen).
# (§6) The cDNA synthesized from the total RNA extracted in the above (2) was used to measure the gene expression level of the inflammation-related factors [IL-1β, IL-6, COX-2 and iNOS (inducible nitric oxide synthase)] by a conventional real time PCR method using a fluorescent dye SYBR GREEN I (Roche Diagnostics) by a Light Cycler LC 480 (the same). A calibration curve was prepared by dilution of a PCR product quantified by a DNA quantitation kit (PicoGreen dsDNA Quantitiation Kit (Molecular Probes)) to an extent of 10^2˜10^7 copies/μL. From each of the resulting measured data, copy numbers per 10000 copies of glyceroaldehyde-3-phosphate dehydrogenase (GAPDH) which was an internal standard were calculated.
# [2] = tested on: α-smooth muscle actin (SMA) gene expression; assay: Evaluation I: TGF-β-induced gene expression of fibrosis-related factors in NHLF cells: α-SMA; assay type: cell-based, human; details: 25 μmol/L test substance 2 hours, then TGF-β 5 ng/mL 24 hours, n = 3
# Protocol: as §1, §2, §3
# IL-6 gene expression = assay: Suppression of IL-1α-induced gene expression of inflammation-related factors in bovine cartilage pieces (real time PCR): IL-6; assay type: cell-based; details: 20 μmol/L test substance 2 hours, then IL-1α 3 ng/mL 8 hours, n = 3
# Protocol: as §4, §5, §6
# IL-1β gene expression = assay: Suppression of LPS-induced gene expression of inflammation-related factors in THP-1 cells (real time PCR): IL-1β; assay type: cell-based, human; details: PMA-differentiated THP-1 cells; test substance 12.5 μmol/mL 2 hours, then LPS 10 mg/mL 3 hours; n = 3
# Protocol: (§7) THP-1 cells were subjected to induction of differentiation for 72 hours with PMA (phorbol 12-myristate 13-acetate; 100 nM/L) and then the THP-1 cells (5×10^5 cells/mL) were incubated for 24 hours in a RPMI 1640+10% FCS culture solution in a 24-well plate. After that, a test substance was added so as to make the final concentration 12.5 μmol/mL followed by conducting the preincubation for 2 hours, a lipopolysaccharide (LPS) was then added thereto so as to make the final concentration 10 mg/mL and, after 3 hours, the cells were recovered.
# as §2, with “was” for “was then”
# as §3, with “inflammation-related” for “fibrosis-related”, “[IL-1β, IL-6” for “[connective tissue growth factor (CTGF), α-smooth muscle actin (SMA), fibronectin, endothelin”, “monocyte chemotactic protein (MCP)-1]” for “type I collagen (Col 1)]”
# [3] = tested on: endothelin gene expression; assay: Evaluation I: TGF-β-induced gene expression of fibrosis-related factors in NHLF cells: endothelin; assay type: cell-based, human; details: 25 μmol/L test substance 2 hours, then TGF-β 5 ng/mL 24 hours, n = 3
# Protocol: as §1, §2, §3
# [4] = tested on: connective tissue growth factor (CTGF) gene expression; assay: Evaluation I: TGF-β-induced gene expression of fibrosis-related factors in NHLF cells: CTGF; assay type: cell-based, human; details: 25 μmol/L test substance 2 hours, then TGF-β 5 ng/mL 24 hours, n = 3
# Protocol: as §1, §2, §3
# [5] = tested on: monocyte chemotactic protein (MCP)-1 gene expression; assay: Suppression of LPS-induced gene expression of inflammation-related factors in THP-1 cells (real time PCR): MCP-1; assay type: cell-based, human; details: PMA-differentiated THP-1 cells; test substance 12.5 μmol/mL 2 hours, then LPS 10 mg/mL 3 hours; n = 3
# Protocol: as §7
# as §2, with “was” for “was then”
# as §3, with “inflammation-related” for “fibrosis-related”, “[IL-1β, IL-6” for “[connective tissue growth factor (CTGF), α-smooth muscle actin (SMA), fibronectin, endothelin”, “monocyte chemotactic protein (MCP)-1]” for “type I collagen (Col 1)]”
SMILES,Copy Numbers per 10000 Copies of GAPDH Col 1 [1],Copy Numbers per 10000 Copies of GAPDH COX-2 (COX-2 gene expression),Copy Numbers per 10000 Copies of GAPDH α-SMA [2],Copy Numbers per 10000 Copies of GAPDH IL-6 (IL-6 gene expression),Copy Numbers per 10000 Copies of GAPDH IL-1β (IL-1β gene expression),Copy Numbers per 10000 Copies of GAPDH Endothelin [3],Copy Numbers per 10000 Copies of GAPDH CTGF [4],Copy Numbers per 10000 Copies of GAPDH MCP-1 [5]
"O=c1oc2c(OS(=O)(=O)c3ccc(C(F)(F)F)cc3)cccc2cc1NS(=O)(=O)c1cccc(C(F)(F)F)c1 [Compound 57, 2-Oxo-3-[[3-(trifluoromethyl)phenyl]sulfonylamino]-chromen-8-yl 4-(trifluoromethyl)benzenesulfonate]",9715.8 copies per 10000 copies of GAP,1420.8 copies per 10000 copies of GAP,1166.3 copies per 10000 copies of GAP,7749.8 copies per 10000 copies of GAP,30318.3 copies per 10000 copies of GAP,8.2 copies per 10000 copies of GAP,8963.4 copies per 10000 copies of GAP,1001.3 copies per 10000 copies of GAP
"O=c1oc2c(OS(=O)(=O)c3cccc(C(F)(F)F)c3)cccc2cc1NS(=O)(=O)c1ccc(C(F)(F)F)cc1 [Compound 68, 2-Oxo-3-[[4-(trifluoromethyl)phenyl]sulfonylamino]-chromen-8-yl 3-(trifluoromethyl)benzenesulfonate]",8905.8 copies per 10000 copies of GAP,1655.9 copies per 10000 copies of GAP,1007.1 copies per 10000 copies of GAP,16195.2 copies per 10000 copies of GAP,24423.1 copies per 10000 copies of GAP,6.4 copies per 10000 copies of GAP,10441.5 copies per 10000 copies of GAP,823.5 copies per 10000 copies of GAP
"O=c1oc2c(OS(=O)(=O)c3ccc(C(F)(F)F)cc3)cccc2cc1NS(=O)(=O)c1cccc(Br)c1 [Compound 58, 3-[(3-Bromophenyl)sulfonylamino]-2-oxochromen-8-yl 4-(trifluoromethyl)benzenesulfonate]",5901.0 copies per 10000 copies of GAP,982.3 copies per 10000 copies of GAP,826.9 copies per 10000 copies of GAP,9346.3 copies per 10000 copies of GAP,31904.4 copies per 10000 copies of GAP,7.6 copies per 10000 copies of GAP,5020.5 copies per 10000 copies of GAP,1040.9 copies per 10000 copies of GAP
"O=c1oc2c(OS(=O)(=O)c3cccc(Br)c3)cccc2cc1NS(=O)(=O)c1cccc(C(F)(F)F)c1 [Compound 60, 2-Oxo-3-[[3-(trifluoromethyl)phenyl]sulfonylamino]-chromen-8-yl 3-bromobenzenesulfonate]",11388.1 copies per 10000 copies of GAP,920.6 copies per 10000 copies of GAP,1324.8 copies per 10000 copies of GAP,9277.4 copies per 10000 copies of GAP,29872.3 copies per 10000 copies of GAP,16.9 copies per 10000 copies of GAP,13992.0 copies per 10000 copies of GAP,1787.5 copies per 10000 copies of GAP
